For one experiment, the target named is EGFR L858R/T790M (Homo sapiens, UniProt P00533, L858R/T790M). Kind of experiment: HTRF-based EGFR biochemical assay (L858R/T790M). Conditions: 100 μM ATP, enzyme 0.02 nM. As for the experimental part: (§1) EGFR biochemical activity measurements were carried out using the homogeneous time-resolved fluorescence (HTRF) assay (Cisbio). Inhibitors and DMSO normalizations were first dispensed to empty black low-volume 384-well plates (Corning) with D300 digital liquid dispenser (HP). All reactions were carried out at room temperature and solutions were added to plates with a Multidrop Combi Reagent Dispenser (ThermoFisher). The reaction mixture (10 μL final volume) contained 1 μM tyrosine kinase peptide-biotin substrate and mutant EGFR in a reaction buffer (50 mM HEPES pH 7.0, 5 mM MgCl2, 1 mM MnCl2, 0.01% BSA, 2 mM TCEP, 0.1 mM NaVO4). […] Enzyme reaction solution (2× concentrations, 5 μL) was added to 384-well plates containing compounds and incubated for 30 mins. Enzyme reactions were initiated with the addition of 5 μL of ATP to a final concentration of 100 μM and reacted for 20 mins.
Sequence of EGFR L858R/T790M (P00533 25-1210 T790M/L858R): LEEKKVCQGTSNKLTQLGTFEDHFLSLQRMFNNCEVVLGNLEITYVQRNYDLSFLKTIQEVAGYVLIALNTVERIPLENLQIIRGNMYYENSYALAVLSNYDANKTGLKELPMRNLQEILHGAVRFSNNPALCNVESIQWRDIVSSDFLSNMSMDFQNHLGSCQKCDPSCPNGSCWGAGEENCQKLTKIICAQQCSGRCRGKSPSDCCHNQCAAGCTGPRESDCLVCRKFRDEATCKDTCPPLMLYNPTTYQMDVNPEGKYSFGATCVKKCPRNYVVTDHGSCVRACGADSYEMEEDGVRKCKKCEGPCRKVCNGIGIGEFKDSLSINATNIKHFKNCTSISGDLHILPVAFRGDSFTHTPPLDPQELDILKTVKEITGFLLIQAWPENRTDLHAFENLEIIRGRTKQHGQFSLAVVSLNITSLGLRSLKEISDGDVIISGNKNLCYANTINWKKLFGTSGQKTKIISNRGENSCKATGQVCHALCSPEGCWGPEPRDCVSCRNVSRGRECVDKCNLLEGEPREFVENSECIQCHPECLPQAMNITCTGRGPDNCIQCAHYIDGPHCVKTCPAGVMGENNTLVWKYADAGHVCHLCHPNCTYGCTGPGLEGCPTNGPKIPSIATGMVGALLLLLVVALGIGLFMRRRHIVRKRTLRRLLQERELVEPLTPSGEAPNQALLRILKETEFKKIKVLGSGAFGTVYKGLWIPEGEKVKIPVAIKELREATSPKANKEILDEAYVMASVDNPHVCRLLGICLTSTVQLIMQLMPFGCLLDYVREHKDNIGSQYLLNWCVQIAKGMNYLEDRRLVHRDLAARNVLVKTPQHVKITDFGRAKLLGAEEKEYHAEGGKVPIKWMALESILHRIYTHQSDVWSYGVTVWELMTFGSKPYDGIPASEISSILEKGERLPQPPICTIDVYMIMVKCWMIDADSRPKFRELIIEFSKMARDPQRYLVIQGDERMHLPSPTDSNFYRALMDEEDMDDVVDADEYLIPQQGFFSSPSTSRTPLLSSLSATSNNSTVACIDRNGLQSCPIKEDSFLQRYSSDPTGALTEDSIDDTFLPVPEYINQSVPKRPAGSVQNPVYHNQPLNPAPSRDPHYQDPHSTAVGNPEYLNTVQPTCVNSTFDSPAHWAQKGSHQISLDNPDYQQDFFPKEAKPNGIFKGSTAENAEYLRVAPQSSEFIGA

The target in another experiment is EGFR L858R (Homo sapiens, UniProt P00533, L858R). Briefly: HTRF-based EGFR biochemical assay (L858R). Conditions: 100 μM ATP, enzyme 0.1 nM. The procedure: as §1, with “20 mins. Reactions were quenched with the addition of 10 μL of phospho-tyrosine antibody-Europium(III) cryptate (1-to-180 volume ratio) and Streptavidin-XL665 (46.7 nM) in EDTA-containing detection buffer, then incubated at room temperature for 1 hour, and read with a PHERAstar plate reader (excitation=337 nm, emission=620 nm and 665 nm).” for “20 mins.”
Sequence of EGFR L858R (P00533 25-1210 L858R): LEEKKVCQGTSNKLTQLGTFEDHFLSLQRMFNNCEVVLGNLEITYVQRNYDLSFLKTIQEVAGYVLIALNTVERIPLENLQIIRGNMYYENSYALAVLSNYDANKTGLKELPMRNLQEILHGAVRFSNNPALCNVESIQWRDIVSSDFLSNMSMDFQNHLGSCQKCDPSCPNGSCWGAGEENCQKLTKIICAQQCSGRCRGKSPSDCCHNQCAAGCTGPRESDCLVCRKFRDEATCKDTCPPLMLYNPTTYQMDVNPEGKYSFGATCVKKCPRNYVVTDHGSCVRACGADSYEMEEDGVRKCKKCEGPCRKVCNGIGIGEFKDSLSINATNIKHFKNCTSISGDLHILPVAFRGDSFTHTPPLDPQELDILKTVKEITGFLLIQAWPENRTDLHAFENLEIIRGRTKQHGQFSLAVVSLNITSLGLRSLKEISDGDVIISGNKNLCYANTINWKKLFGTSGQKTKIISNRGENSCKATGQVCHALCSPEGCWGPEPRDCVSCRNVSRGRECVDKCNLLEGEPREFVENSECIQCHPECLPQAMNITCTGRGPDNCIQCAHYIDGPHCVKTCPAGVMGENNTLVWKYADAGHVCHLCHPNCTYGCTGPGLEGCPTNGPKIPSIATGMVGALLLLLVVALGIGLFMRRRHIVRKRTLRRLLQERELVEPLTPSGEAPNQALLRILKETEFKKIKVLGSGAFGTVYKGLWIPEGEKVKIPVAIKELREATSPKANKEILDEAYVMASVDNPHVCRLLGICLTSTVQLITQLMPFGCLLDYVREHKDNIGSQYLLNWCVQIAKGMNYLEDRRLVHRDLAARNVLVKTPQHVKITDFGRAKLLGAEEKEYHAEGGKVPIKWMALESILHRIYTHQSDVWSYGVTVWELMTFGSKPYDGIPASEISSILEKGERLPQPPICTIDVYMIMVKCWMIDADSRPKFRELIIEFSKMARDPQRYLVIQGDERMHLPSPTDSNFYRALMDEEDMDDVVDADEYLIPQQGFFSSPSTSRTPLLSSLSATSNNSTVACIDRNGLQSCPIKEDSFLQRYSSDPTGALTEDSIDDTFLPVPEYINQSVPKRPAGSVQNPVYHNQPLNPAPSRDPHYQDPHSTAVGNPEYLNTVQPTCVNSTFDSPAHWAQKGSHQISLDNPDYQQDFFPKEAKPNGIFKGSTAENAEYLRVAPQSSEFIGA
Background: TR-FRET usually uses a lanthanide donor and a delayed reading to cut background.

Experiment [1] concerns the target EGFR L858R/T790M mutant Ba/F3 cells (Homo sapiens, UniProt P00533, T790M/L858R, cells depend on it). Kind of experiment: Ba/F3 cell proliferation (Cell Titer Glo). Conditions: 72 hours. In kind it is cell-based, murine. The text has this: All cell lines were maintained in RPMI 1640 (Cellgro; Mediatech Inc., Herndon, CA) supplemented with 10% FBS, 100 units/mL penicillin, 100 units/mL streptomycin. The EGFR I941R mutation was introduced via site directed mutagenesis using the Quick Change Site-Directed Mutagenesis kit (Stratagene; La Jolla, CA) according to the manufacturer's instructions. All constructs were confirmed by DNA sequencing. The constructs were shuttled into the retroviral vector JP1540 using the Cre-recombination system (Agilent Technologies, Santa Clara, CA). Ba/F3 cells were then infected with retrovirus per standard protocols, as described previously (Zhou, et al, Nature 2009). Stable clones were obtained by selection in puromycin (2 μg/ml).
Growth and inhibition of growth was assessed by the Cell Titer Glo assay (Promega, Madison, WI) and was performed according to the manufacturer's instructions. The Cell Titer Glo assay is a luminescence-based method used to determine the number of viable cells based on quantitation of the ATP present, which is directly proportional to the amount of metabolically active cells present. […] All experimental points were set up in triplicates in 384-well plates and all experiments were repeated at least three times. […] The curves were fitted using a non-linear regression model with a sigmoidal dose response.

Setting [2] is: in combination with 1 μg/ml cetuximab, read-out: Cell IC50 BaF3 L858R/T790M compound + cetuximab.
Setting [3] is: single agent, read-out: Cell IC50 EGFR BaF3 L858R/T790M.

Like-named read-outs stand apart in the source and are kept apart here.

Sequence of EGFR L858R/T790M mutant Ba/F3 cells (P00533 whole entry T790M/L858R): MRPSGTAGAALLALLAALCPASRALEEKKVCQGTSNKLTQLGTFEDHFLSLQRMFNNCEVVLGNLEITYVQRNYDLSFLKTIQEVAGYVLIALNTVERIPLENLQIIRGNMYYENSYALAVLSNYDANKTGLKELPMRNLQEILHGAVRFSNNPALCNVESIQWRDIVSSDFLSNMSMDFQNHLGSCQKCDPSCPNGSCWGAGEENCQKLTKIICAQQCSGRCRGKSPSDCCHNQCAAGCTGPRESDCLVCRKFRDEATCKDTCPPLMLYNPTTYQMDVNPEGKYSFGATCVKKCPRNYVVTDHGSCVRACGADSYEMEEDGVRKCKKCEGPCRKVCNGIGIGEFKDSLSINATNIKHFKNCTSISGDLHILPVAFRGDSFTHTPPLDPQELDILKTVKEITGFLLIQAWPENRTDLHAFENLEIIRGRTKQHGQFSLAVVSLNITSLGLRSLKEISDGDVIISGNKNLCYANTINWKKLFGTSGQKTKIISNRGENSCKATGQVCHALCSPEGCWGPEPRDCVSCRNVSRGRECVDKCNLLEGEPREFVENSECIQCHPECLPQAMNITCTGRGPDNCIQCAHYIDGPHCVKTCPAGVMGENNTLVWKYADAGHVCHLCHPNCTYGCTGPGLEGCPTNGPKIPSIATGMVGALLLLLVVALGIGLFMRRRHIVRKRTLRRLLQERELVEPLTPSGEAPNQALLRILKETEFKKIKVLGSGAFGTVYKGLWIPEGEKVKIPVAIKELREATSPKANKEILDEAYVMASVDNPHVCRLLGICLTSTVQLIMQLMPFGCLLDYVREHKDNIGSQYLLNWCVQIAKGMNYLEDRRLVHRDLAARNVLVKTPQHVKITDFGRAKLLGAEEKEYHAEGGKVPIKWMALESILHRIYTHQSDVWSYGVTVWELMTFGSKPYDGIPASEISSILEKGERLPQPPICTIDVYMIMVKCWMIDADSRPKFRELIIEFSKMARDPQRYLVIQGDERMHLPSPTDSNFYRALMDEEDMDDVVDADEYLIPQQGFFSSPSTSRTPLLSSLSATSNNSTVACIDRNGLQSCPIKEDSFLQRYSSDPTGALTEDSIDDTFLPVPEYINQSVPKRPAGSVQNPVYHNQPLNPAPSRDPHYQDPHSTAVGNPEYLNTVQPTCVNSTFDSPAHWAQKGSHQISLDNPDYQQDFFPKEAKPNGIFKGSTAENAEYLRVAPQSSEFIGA

For `CN1CCC(c2ccc(-c3ccc4c(F)cn(C(C(=O)Nc5nccs5)c5ccccc5)c(=O)c4c3)cc2)CC1` (centres unmarked) [Compound 036, 2-(4-Fluoro-7-(4-(1-methylpiperidin-4-yl)phenyl)-1-oxoisoquinolin-2(1H)-yl)-2-phenyl-N-(thiazol-2-yl)acetamide], the values for the concentration for half-maximal inhibition (IC50) at EGFR L858R/T790M and against EGFR L858R were 0.3 nM and 4 nM, respectively. Besides, the results for the GI50 in experiment [1] (setting [2]) and in experiment [1] (setting [3]) were 23 nM and 920 nM, respectively.
Consider `CN1CCN(c2ccc(-c3ccc4c(F)cn(C(C(=O)Nc5nccs5)c5ccccc5)c(=O)c4c3)cc2)CC1` (centres unmarked) [Compound 037, 2-(4-Fluoro-7-(4-(4-methylpiperazin-1-yl)phenyl)-1-oxoisoquinolin-2(1H)-yl)-2-phenyl-N-(thiazol-2-yl)-acetamide], for which the IC50 – broadly, the concentration needed to halve the response being measured – at EGFR L858R/T790M was 1 nM; at EGFR L858R it was 8 nM. Besides, the GI50 in experiment [1] (setting [2]) amounted to 22 nM; in experiment [1] (setting [3]) it was 2650 nM.
Turning to `CN1CCC(c2ccc(-c3ccc4ncn(C(C(=O)Nc5ccccn5)c5ccccc5)c(=O)c4c3)cc2)CC1` (centres unmarked) [Compound 038, 2-(6-(4-(1-Methylpiperidin-4-yl)-phenyl)-4-oxaquinazolin-3(4H)-yl)-2-phenyl-N-(pyridin-2-yl)acetamide], the figures for the IC50 on EGFR L858R/T790M and against EGFR L858R were 2 nM and 9 nM, respectively. For the same molecule, the results for the GI50 in experiment [1] (setting [2]) and in experiment [1] (setting [3]) were 57 nM and 1860 nM, respectively.
As to `CN1CCN(c2ccc(-c3ccc4ncn(C(C(=O)Nc5ccccn5)c5ccccc5)c(=O)c4c3)cc2)CC1` (centres unmarked) [Compound 039, 2-(6-(4-(4-Methylpiperazin-1-yl)-phenyl)-4-oxoquinazolin-3(4H)-yl)-2-phenyl-N-(pyridin-2-yl)acetamide], the IC50 was found to be 9 nM against EGFR L858R/T790M and 191 nM against EGFR L858R. The values for the GI50 in experiment [1] (setting [2]) and in experiment [1] (setting [3]) were 76 nM and 1780 nM, respectively.
As to `O=C(Nc1nccs1)C(c1ccccc1)n1ncc2ccc(Br)cc2c1=O` (centres unmarked) [Compound 041, 2-(7-Bromo-1-oxophthalazin-2(1H)-yl)-2-phenyl-N-(thiazol-2-yl)-acetamide], the concentration for half-maximal inhibition (IC50) on EGFR L858R/T790M is 31 nM; on EGFR L858R, more than 1000 nM. Besides, the GI50 in experiment [1] (setting [2]) and in experiment [1] (setting [3]) was more than 10000 nM each time.
As for `CN1CCC(c2ccc(-c3ccc4cnn(C(C(=O)Nc5nccs5)c5ccccc5)c(=O)c4c3)cc2)CC1` (centres unmarked) [Compound 042, 2-(7-(4-(1-Methylpiperidin-4-yl)-phenyl)-1-oxophtharazin-2(1H)-yl)-2-phenyl-N-(thiazol-2-yl)acetamide], the half-maximal inhibitory concentration (IC50) at EGFR L858R/T790M worked out at 4 nM; against EGFR L858R it was 35 nM. The GI50 stood at 250 nM in experiment [1] (setting [2]) and 1460 nM in experiment [1] (setting [3]).
Turning to `CN1CCN(c2ccc(-c3ccc4cnn(C(C(=O)Nc5nccs5)c5ccccc5)c(=O)c4c3)cc2)CC1` (centres unmarked) [Compound 043, 2-(7-(4-(4-Methylpiperazin-1-yl)-phenyl)-1-oxophthalazin-2(1H)-yl)-2-phenyl-N-(thiazol-2-yl)acetamide], the IC50 against EGFR L858R/T790M amounted to 10 nM; against EGFR L858R it was 90 nM. In addition, the GI50 in experiment [1] (setting [2]) stood at 380 nM; in experiment [1] (setting [3]) it was 2160 nM.
The matching figures for `Cc1nc2ccc(-c3ccc(C4CCN(C)CC4)cc3)cc2c(=O)n1C(C(=O)Nc1nccs1)c1ccccc1` (centres unmarked) [Compound 044, 2-(2-Methyl-6-(4-(1-methylpiperidin-4-yl)phenyl)-4-oxoquinazolin-3(4H)-yl)-2-phenyl-N-(thiazol-2-yl)acetamide]: 283 nM, more than 1000 nM, 790 nM and 2460 nM.
The corresponding values for `Cc1nc2ccc(-c3ccc(N4CCN(C)CC4)cc3)cc2c(=O)n1C(C(=O)Nc1nccs1)c1ccccc1` (centres unmarked) [Compound 045, 2-(2-Methyl-6-(4-(4-methylpiperazin-1-yl)phenyl)-4-oxoquinazolin-3(4H)-yl)-2-phenyl-N-(thiazol-2-yl)-acetamide] are 297 nM, more than 1000 nM, 4100 nM and 4100 nM.
The matching figures for `Cc1nc2cc(-c3ccc(C4CCN(C)CC4)cc3)ccc2c(=O)n1C(C(=O)Nc1nccs1)c1ccccc1` (centres unmarked) [Compound 054, 2-(2-Methyl-7-(4-(1-methylpiperidin-4-yl)phenyl)-4-oxoquinazolin-3(4H)-yl)-2-phenyl-N-(thiazol-2-yl)acetamide]: 42 nM, 91 nM, 410 nM and 2480 nM.
As to `Cc1nc2cc(-c3ccc(N4CCN(C)CC4)cc3)ccc2c(=O)n1C(C(=O)Nc1nccs1)c1ccccc1` (centres unmarked) [Compound 055, 2-(2-Methyl-7-(4-(4-methylpiperazin-1-yl)phenyl)-4-oxoquinazolin-3(4H)-yl)-2-phenyl-N-(thiazol-2-yl)-acetamide], the 50% inhibitory concentration (IC50) against EGFR L858R/T790M was found to be 79 nM; at EGFR L858R, 264 nM. Besides, the GI50 was 1500 nM in experiment [1] (setting [2]) and 3940 nM in experiment [1] (setting [3]).
As to `CN1CCC(c2ccc(-c3cnc4c(=O)n(C(C(=O)Nc5nccs5)c5ccccc5)cnc4c3)cc2)CC1` (centres unmarked) [Compound 056, 2-(7-(4-(1-Methylpiperidin-4-yl)phenyl)-4-oxopyrido[3,2-d]pyrimidin-3(4H)-yl)-2-phenyl-N-(thiazol-2-yl)acetamide], the IC50 was 7 nM against EGFR L858R/T790M and 32 nM against EGFR L858R. In addition, the GI50 in experiment [1] (setting [2]) amounted to 410 nM; in experiment [1] (setting [3]), 3970 nM.
Consider `CN1CCN(c2ccc(-c3cnc4c(=O)n(C(C(=O)Nc5nccs5)c5ccccc5)cnc4c3)cc2)CC1` (centres unmarked) [Compound 057, 2-(7-(4-(4-Methylpiperazin-1-yl)-phenyl)-4-oxopyrido[3,2-d]-pyrimidin-3(4H)-yl)-2-phenyl-N-(thiazol-2-yl)acetamide], for which the half-inhibitory concentration (IC50) worked out at 7 nM on EGFR L858R/T790M and 50 nM at EGFR L858R. Moreover, the values for the GI50 in experiment [1] (setting [2]) and in experiment [1] (setting [3]) were 700 nM and 4730 nM, respectively.
The corresponding values for `CN1CCC(c2ccc(-c3cnc4ncn(C(C(=O)Nc5nccs5)c5ccccc5)c(=O)c4c3)cc2)CC1` (centres unmarked) [Compound 058, 2-(6-(4-(1-Methylpiperidin-4-yl)phenyl)-4-oxopyrido[2,3-d]-pyrimidin-3(4H)-yl)-2-phenyl-N-(thiazol-2-yl)acetamide] are 2 nM, 8 nM, 12 nM and 930 nM.
As for `CN1CCN(c2ccc(-c3cnc4ncn(C(C(=O)Nc5nccs5)c5ccccc5)c(=O)c4c3)cc2)CC1` (centres unmarked) [Compound 059, 2-(6-(4-(4-Methylpiperazin-1-yl)-phenyl)-4-oxopyrido[2,3-d]-pyrimidin-3(4H)-yl)-2-phenyl-N-(thiazol-2-yl)acetamide], the half-inhibitory concentration (IC50) against EGFR L858R/T790M is 8 nM; against EGFR L858R, 48 nM. Moreover, the GI50 in experiment [1] (setting [2]) came to 84 nM; in experiment [1] (setting [3]), 1370 nM.
As for `CN1CCC(c2ccc(-c3cc(F)c4ncn(C(C(=O)Nc5nccs5)c5ccccc5)c(=O)c4c3)cc2)CC1` (centres unmarked) [Compound 060, 2-(8-Fluoro-6-(4-(1-methylpiperidin-4-yl)phenyl)-4-oxoquinazolin-3-(4H)-yl)-2-phenyl-N-(thiazol-2-yl)-acetamide], the IC50 on EGFR L858R/T790M was found to be 0.6 nM; on EGFR L858R, 4 nM. The GI50 in experiment [1] (setting [2]) turned out to be 9 nM; in experiment [1] (setting [3]), 710 nM.
Take `O=C(Nc1nccs1)C(c1cccnc1)n1cnc2ccc(Br)cc2c1=O` (centres unmarked) [Compound 062, 2-(6-Bromo-4-oxoquinazolin-3(4H)-yl)-2-(pyridin-3-yl)-N-(thiazol-2-yl)-acetamide]: the 50% inhibitory concentration (IC50) at EGFR L858R/T790M was 220 nM; on EGFR L858R, more than 1000 nM. The GI50 in experiment [1] (setting [2]) and in experiment [1] (setting [3]) was more than 10000 nM throughout.

These data come from patent US12622909B2, “Allosteric EGFR inhibitors and methods of use thereof” (Dana-Farber Cancer Institute, Inc., priority 2019, dated 2026).
